# Measurements reported in patent US20030049284A1, “Method of increasing the solubility of alphahydrocarboxilic salts, and products obtained by the method” (priority 2001, published 2003).
# Experiments:
# [1] = Solubility in water (comparative data and examples); format: physicochemical; details: in 1 liter of water at 20-25° C.
# [2] = water at 20° C.; literature value (index Merck Ref. 1675; F.C.C. IV Ed. Page 153); cited from earlier work
smiles,measurement,setting,value
O=C([O-])[C@H](O)[C@@H](O)[C@H](O)[C@H](O)CO.O=C([O-])[C@H](O)[C@@H](O)[C@H](O)[C@H](O)CO.[Fe+2] [Fe(II) gluconate],"solubility, amount in 1 liter of water",[1],85-100 gr.
same,solubility in water,[2],100 gr/1000 ml
